In article PMC8465942, “Cyano- and Ketone-Containing Selenoesters as Multi-Target Compounds against Resistant Cancers” (Cancers, 2021):
Entries after “also recorded” stand apart in the source; their conditions may differ.

Tested on: Colo 205 human colonic adenocarcinoma cell line
Experiment: Cytotoxicity (MTT) on sensitive Colo 205 cells
Assay type: cell-based
Settings: Homo sapiens, COLO 205, 24 h, read-out: Colo 205 (IC50 µM) Mean
Text: (§1) Three cell lines have been used in this study: the doxorubicin-sensitive Colo 205 (CCL-222, ATCC, Manassas, VA, USA) human colonic adenocarcinoma cell line; the multidrug resistant Colo 320/MDR-LRP expressing P-gp (MDR1)-LRP (CCL-220.1, ATCC) human colonic adenocarcinoma cell line; and the MRC-5 human embryonal lung fibroblast cell line (CCL-171, ATCC). The colon adenocarcinoma cell lines were purchased from LGC Promochem (Teddington, UK), and the MRC-5 cell line was purchased from Sigma-Aldrich (Merck KGaA, Darmstadt, Germany). Their culture conditions are as follows: Colo 205 (CCL-222, ATCC) and Colo 320/MDR-LRP expressing P-gp (MDR1)-LRP (CCL-220.1, ATCC) human colon adenocarcinoma cell lines were cultured in RPMI 1640 medium, supplemented with 10% FBS, 2 mM L-glutamine, 1 mM Na-pyruvate, and […]. The cell lines were incubated at 37 °C, 5% CO2, and 95% air atmosphere. The semi-adherent human colon cancer cells were detached with a Trypsin-Versene (EDTA) solution for 5 min at 37 °C. MRC-5 human embryonal lung fibroblast cells were cultured in EMEM containing 4.5 g/L of glucose and supplemented with a non-essential amino acid mixture, a selection of vitamins, and 10% FBS. The cell lines were incubated at 37 °C, 5% CO2, and 95% air atmosphere.
(§2) The effects of increasing concentrations of the compounds on cell growth were tested in 96-well flat-bottomed microtiter plates. Moreover, 10^4 of human colonic adenocarcinoma cells in 100 μL of the medium (RPMI-1640) were added to each well, except for the medium control wells. The adherent human embryonic lung fibroblast cell line was seeded in the EMEM medium for 4 h before the assay. The two-fold serial dilutions of the compounds were made in a separate plate (0.19–100 μM), and then transferred to the plates containing the adherent corresponding cell line. Culture plates were incubated at 37 °C for 24 h. At the end of the incubation period, 20 μL of MTT (thiazolyl blue tetrazolium bromide) solution (from a 5 mg/mL stock solution) were added to each well. After incubation at 37 °C for 4 h, 100 μL of sodium dodecyl sulfate (SDS) solution (10% SDS in 0.01 M HCl) was added to each well, and the plates were further incubated at 37 °C overnight. Cell growth was determined by measuring the optical density (OD) at 540 nm (ref. 630 nm) with a Multiscan EX ELISA reader (Thermo Labsystems, Cheshire, WA, USA). Inhibition of cell growth was expressed as IC50 values, defined as the inhibitory dose that reduces the growth of the cells exposed to the tested compounds by 50%. IC50 values and the SD of triplicate experiments were calculated by using GraphPad Prism software version 5.00 for Windows, with a non-linear regression curve fit (GraphPad Software, San Diego, CA, USA; www.graphpad.com, accessed on 12 July 2021). Doxorubicin (from a 2 mg/mL stock solution, Teva Pharmaceuticals) was used as a positive control.
(§3) The selectivity indexes (SI) were calculated as the ratio of the IC50 value in the non-tumour cells and the IC50 in the cancer cell lines. The compound’s activity towards cancer cells is considered as strongly selective if the selectivity index (SI) value is higher than 6, moderately selective if 3 < SI < 6, slightly selective if 1 < SI < 3, and non-selective if SI is lower than 1 [16].

Row | SMILES | IC50
1 | CC(=O)C[Se]C(=O)c1ccc(Br)cc1 [K3, Se-(2-Oxopropyl) 4-Bromobenzoselenoate] | 2.28 µM
2 | CC(=O)C[Se]C(=O)c1ccccc1C(F)(F)F [K4, Se-(2-Oxopropyl) 2-(Trifluoromethyl)benzoselenoate] | 1.05 µM

Same assay, conditions: Homo sapiens, COLO 205; 24 h, MTT; read-out: Colo 205 (IC50 µM) Mean

Row | SMILES | IC50
3 | CC(=O)C[Se]C(=O)c1cccs1 [K1, Se-(2-Oxopropyl) Thiophene-2-carboselenoate] | 1.53 µM

Same assay, conditions: ratio IC50 non-tumour cells / IC50 cancer cells

Row | SMILES | SI MRC-5/Colo 205
4 | CC(=O)C[Se]C(=O)c1cccs1 [K1, Se-(2-Oxopropyl) Thiophene-2-carboselenoate] | 1.46
5 | CC(=O)C[Se]C(=O)c1ccc(Br)cc1 [K3, Se-(2-Oxopropyl) 4-Bromobenzoselenoate] | 1.25

Tested on: HeLa (cervical adenocarcinoma)
Experiment: Cytotoxicity on HeLa cells
Assay type: cell-based
Settings: Homo sapiens
Procedure: (§4) The activity of selenoesters was tested on several cancer cell lines, including HepG2 (hepatocellular carcinoma, CCL-23TM, ATCC); HeLa (cervical adenocarcinoma, CCL-2TM, ATCC); B16 (skin melanoma, CCL-6322TM, ATCC); and a non-cancerous cell line, HDF (human dermal fibroblasts, Sigma-Aldrich). HepG2, HeLa, B16, and HDF cell lines were cultivated in EMEM medium supplemented with 10% FBS, 2 mM L-glutamine, and 1% penicillin-streptomycin mixture. The HaCaT cell line was cultivated in DMEM medium supplemented with 10% FBS and 1% penicillin-streptomycin mixture. All of the cells were cultivated in a CO2 incubator (5% CO2, 37 °C). Twice per week, the cell lines were passaged according to a standardized protocol with a trypsin-EDTA solution.
as §3

Row | SMILES | IC50
6 | CC(=O)C[Se]C(=O)c1cccs1 [K1, Se-(2-Oxopropyl) Thiophene-2-carboselenoate] | 2.5 µM
7 | CC(=O)C[Se]C(=O)c1ccc(Br)cc1 [K3, Se-(2-Oxopropyl) 4-Bromobenzoselenoate] | 2.1 µM
8 | CC(=O)C[Se]C(=O)c1ccccc1C(F)(F)F [K4, Se-(2-Oxopropyl) 2-(Trifluoromethyl)benzoselenoate] | 1.9 µM

Tested on: resistant Colo 320 colon adenocarcinoma cells expressing the ABCB1 transporter
Experiment: Checkerboard combination assay with doxorubicin
Assay type: cell-based, human
Settings: in at least one of the ratios tested
Procedure: A checkerboard microplate method was applied to study the effect of drug interactions between the selenocompounds and the chemotherapeutic drug doxorubicin on resistant Colo 320 colon adenocarcinoma cells expressing the ABCB1 transporter. Results were expressed in terms of the combination index (CI) values at 50% growth inhibition (ED50), which were determined by using CompuSyn software to plot 4 or 5 data points for each ratio.
To perform the experiment, the dilutions of doxorubicin were made in a horizontal direction in 100 µL, and the dilutions of the Se-compounds were made vertically in the microtiter plate in a volume of 50 µL. The cells were re-suspended in the culture medium and distributed into each well in 50 µL portions containing 6000 cells. The plates were incubated for 72 h at 37 °C in a CO2 incubator. The cell growth rate was determined after MTT staining. At the end of the incubation period, 20 μL of MTT solution was added to each well. After incubation at 37 °C for 4 h, 100 μL of SDS was added to each well and the plates were further incubated at 37 °C overnight. The optical density (OD) was measured at 540/630 nm with the Multiscan EX ELISA reader.

Row | SMILES | Interaction with doxorubicin
9 | CC(=O)C[Se]C(=O)c1cccs1 [K1, Se-(2-Oxopropyl) Thiophene-2-carboselenoate] | synergistic manner; also recorded: interact synergistically
10 | CC(=O)C[Se]C(=O)c1ccc(Br)cc1 [K3, Se-(2-Oxopropyl) 4-Bromobenzoselenoate] | synergistic manner; also recorded: interact synergistically
11 | CC(=O)C[Se]C(=O)c1ccccc1C(F)(F)F [K4, Se-(2-Oxopropyl) 2-(Trifluoromethyl)benzoselenoate] | synergistic manner; also recorded: interact synergistically

Same assay, conditions: ratio 0.6:1; starting conc. 5 µM

Row | SMILES | Type of Interaction
12 | CC(=O)C[Se]C(=O)c1cccs1 [K1, Se-(2-Oxopropyl) Thiophene-2-carboselenoate] | Antagonism
13 | CC(=O)C[Se]C(=O)c1ccccc1C(F)(F)F [K4, Se-(2-Oxopropyl) 2-(Trifluoromethyl)benzoselenoate] | Synergism

Same assay, conditions: ratio 0.7:1; starting conc. 6 µM

Row | SMILES | Type of Interaction
14 | CC(=O)C[Se]C(=O)c1ccc(Br)cc1 [K3, Se-(2-Oxopropyl) 4-Bromobenzoselenoate] | Moderate antagonism

Same assay, conditions: ratio 1.2:1; starting conc. 5 µM

Row | SMILES | Type of Interaction
15 | CC(=O)C[Se]C(=O)c1cccs1 [K1, Se-(2-Oxopropyl) Thiophene-2-carboselenoate] | Additive effect
16 | CC(=O)C[Se]C(=O)c1ccccc1C(F)(F)F [K4, Se-(2-Oxopropyl) 2-(Trifluoromethyl)benzoselenoate] | Additive effect

Same assay, conditions: ratio 1.4:1; starting conc. 6 µM

Row | SMILES | Type of Interaction
17 | CC(=O)C[Se]C(=O)c1ccc(Br)cc1 [K3, Se-(2-Oxopropyl) 4-Bromobenzoselenoate] | Synergism

Same assay, conditions: ratio 2.4:1; starting conc. 5 µM

Row | SMILES | Type of Interaction
18 | CC(=O)C[Se]C(=O)c1cccs1 [K1, Se-(2-Oxopropyl) Thiophene-2-carboselenoate] | Additive effect
19 | CC(=O)C[Se]C(=O)c1ccccc1C(F)(F)F [K4, Se-(2-Oxopropyl) 2-(Trifluoromethyl)benzoselenoate] | Additive effect

Same assay, conditions: ratio 2.8:1; starting conc. 6 µM

Row | SMILES | Type of Interaction
20 | CC(=O)C[Se]C(=O)c1ccc(Br)cc1 [K3, Se-(2-Oxopropyl) 4-Bromobenzoselenoate] | Moderate synergism

Same assay, conditions: ratio 4.8:1; starting conc. 5 µM

Row | SMILES | Type of Interaction
21 | CC(=O)C[Se]C(=O)c1cccs1 [K1, Se-(2-Oxopropyl) Thiophene-2-carboselenoate] | Slight synergism
22 | CC(=O)C[Se]C(=O)c1ccccc1C(F)(F)F [K4, Se-(2-Oxopropyl) 2-(Trifluoromethyl)benzoselenoate] | Moderate synergism

Same assay, conditions: ratio 5.6:1; starting conc. 6 µM

Row | SMILES | Type of Interaction
23 | CC(=O)C[Se]C(=O)c1ccc(Br)cc1 [K3, Se-(2-Oxopropyl) 4-Bromobenzoselenoate] | Antagonism

Same assay, conditions: ratio 9.6:1; starting conc. 5 µM

Row | SMILES | Type of Interaction
24 | CC(=O)C[Se]C(=O)c1cccs1 [K1, Se-(2-Oxopropyl) Thiophene-2-carboselenoate] | Slight antagonism
25 | CC(=O)C[Se]C(=O)c1ccccc1C(F)(F)F [K4, Se-(2-Oxopropyl) 2-(Trifluoromethyl)benzoselenoate] | Slight synergism

Same assay, conditions: ratio 11.2:1; starting conc. 6 µM

Row | SMILES | Type of Interaction
26 | CC(=O)C[Se]C(=O)c1ccc(Br)cc1 [K3, Se-(2-Oxopropyl) 4-Bromobenzoselenoate] | Moderate antagonism

Same assay, conditions: ratio 19.2:1; starting conc. 5 µM

Row | SMILES | Type of Interaction
27 | CC(=O)C[Se]C(=O)c1ccccc1C(F)(F)F [K4, Se-(2-Oxopropyl) 2-(Trifluoromethyl)benzoselenoate] | Additive effect

Same assay, conditions: ratio 22.4:1; starting conc. 6 µM

Row | SMILES | Type of Interaction
28 | CC(=O)C[Se]C(=O)c1ccc(Br)cc1 [K3, Se-(2-Oxopropyl) 4-Bromobenzoselenoate] | Antagonism

Tested on: Colo 320/MDR-LRP human colonic adenocarcinoma cell line
Experiment: Cytotoxicity (MTT) on resistant Colo 320 cells
Assay type: cell-based
Settings: Homo sapiens, COLO 320, 24 h, read-out: Colo 320 (IC50 µM) Mean
Text: as §1, §2, §3

Row | SMILES | IC50
29 | CC(=O)C[Se]C(=O)c1ccc(Br)cc1 [K3, Se-(2-Oxopropyl) 4-Bromobenzoselenoate] | 2.15 µM
30 | CC(=O)C[Se]C(=O)c1ccccc1C(F)(F)F [K4, Se-(2-Oxopropyl) 2-(Trifluoromethyl)benzoselenoate] | 1.48 µM

Same assay, conditions: Homo sapiens, COLO 320; 24 h, MTT; read-out: Colo 320 (IC50 µM) Mean

Row | SMILES | IC50
31 | CC(=O)C[Se]C(=O)c1cccs1 [K1, Se-(2-Oxopropyl) Thiophene-2-carboselenoate] | 1.47 µM

Same assay, conditions: ratio IC50 non-tumour cells / IC50 cancer cells

Row | SMILES | SI MRC-5/Colo 320
32 | CC(=O)C[Se]C(=O)c1cccs1 [K1, Se-(2-Oxopropyl) Thiophene-2-carboselenoate] | 1.52
33 | CC(=O)C[Se]C(=O)c1ccc(Br)cc1 [K3, Se-(2-Oxopropyl) 4-Bromobenzoselenoate] | 1.33
34 | CC(=O)C[Se]C(=O)c1ccccc1C(F)(F)F [K4, Se-(2-Oxopropyl) 2-(Trifluoromethyl)benzoselenoate] | 2.45

Tested on: HeLa (cervical adenocarcinoma)
Experiment: Cytotoxicity on HeLa cells
Assay type: cell-based, human
Settings: ratio IC50 non-tumour cells / IC50 cancer cells

Row | SMILES | SI MRC-5/HeLa
35 | CC(=O)C[Se]C(=O)c1cccs1 [K1, Se-(2-Oxopropyl) Thiophene-2-carboselenoate] | 1.5
36 | CC(=O)C[Se]C(=O)c1ccc(Br)cc1 [K3, Se-(2-Oxopropyl) 4-Bromobenzoselenoate] | 1.1
37 | CC(=O)C[Se]C(=O)c1ccccc1C(F)(F)F [K4, Se-(2-Oxopropyl) 2-(Trifluoromethyl)benzoselenoate] | 1.5

Tested on: B16 (skin melanoma)
Experiment: Cytotoxicity on B16 cells
Assay type: cell-based, murine
Settings: Mus musculus
Procedure: as §4, §3

Row | SMILES | IC50
38 | CC(=O)C[Se]C(=O)c1cccs1 [K1, Se-(2-Oxopropyl) Thiophene-2-carboselenoate] | 1.4 µM
39 | CC(=O)C[Se]C(=O)c1ccc(Br)cc1 [K3, Se-(2-Oxopropyl) 4-Bromobenzoselenoate] | 1.7 µM
40 | CC(=O)C[Se]C(=O)c1ccccc1C(F)(F)F [K4, Se-(2-Oxopropyl) 2-(Trifluoromethyl)benzoselenoate] | 2 µM

Tested on: not listed separately
Experiment: Cytotoxicity (MTT) on normal MRC-5 fibroblasts
Assay type: cell-based
Settings: human
Text: as §1, §2

Row | SMILES | IC50 at 24 h
41 | CC(=O)C[Se]C(=O)c1cccs1 [K1, Se-(2-Oxopropyl) Thiophene-2-carboselenoate] | 2.24 µM

Same assay, conditions: human; 24 h, MTT; read-out: MRC-5 (IC50 µM) Mean

Row | SMILES | IC50 at 24 h
42 | CC(=O)C[Se]C(=O)c1ccc(Br)cc1 [K3, Se-(2-Oxopropyl) 4-Bromobenzoselenoate] | 2.86 µM
43 | CC(=O)C[Se]C(=O)c1ccccc1C(F)(F)F [K4, Se-(2-Oxopropyl) 2-(Trifluoromethyl)benzoselenoate] | 3.63 µM

Tested on: HepG2 (hepatocellular carcinoma)
Experiment: Cytotoxicity on HepG2 cells
Assay type: cell-based
Settings: Homo sapiens
Procedure: as §4, §3

Row | SMILES | IC50
44 | CC(=O)C[Se]C(=O)c1cccs1 [K1, Se-(2-Oxopropyl) Thiophene-2-carboselenoate] | 2.3 µM
45 | CC(=O)C[Se]C(=O)c1ccc(Br)cc1 [K3, Se-(2-Oxopropyl) 4-Bromobenzoselenoate] | 3.1 µM
46 | CC(=O)C[Se]C(=O)c1ccccc1C(F)(F)F [K4, Se-(2-Oxopropyl) 2-(Trifluoromethyl)benzoselenoate] | 4.3 µM
